In patent US7211417B2, “Antibiotic P175-A and semisynthetic derivatives thereof” (priority 2003, dated 2007):
Values after ≈ are worked out from the molar mass of the structure shown. Read-outs that look alike come from different tables or passages of the source.

Experiments:
Type in all cases: cell-based
[1] = system: Enterococcus faecalis; test: MIC by broth dilution, Enterococcus faecalis
Experimental: (§1) The minimal inhibitory concentration (MIC), the lowest concentration of the antibiotic which inhibits growth of the test organism, is determined by the broth dilution method using Muller-Hinton II […] (Baltimore Biological Laboratories) following the recommendations of the National Committee for Clinical Laboratory Standards [Methods for dilution antimicrobial susceptibility tests for bacteria that grow aerobically. Approved standard M7-A2. National Committee for Clinical Laboratory Standards, Villanova, Pa.].
(§2) An inoculum level of 5×10^5 CFU/ml, and a range of antibiotic concentrations (64–0.06 μg/ml) is used. The MIC is determined after the microtiter plates are incubated for 18 hours at 35° C. in an ambient air incubator. The test organisms comprise a spectrum of the Gram-positive bacteria Staphylococcus aureus, Streptococcus pneumoniae, and Enterococcus sp., the Gram-negative bacteria Escherichia coli, and the yeast Candida albicans. These organisms include recent clinical isolates that are resistant to methicillin and vancomycin.

[2] = system: Staphylococcus aureus; test: MIC by broth dilution, Staphylococcus aureus
Experimental: as §1, §2

[3] = system: Bacillus subtilis; test: MIC by broth dilution, Bacillus subtilis
[4] = system: Escherichia coli (imp); test: MIC by broth dilution, Escherichia coli (imp)
Experimental: as §1, §2

[5] = system: Escherichia coli; test: MIC by broth dilution, Escherichia coli
Experimental: as §1, §2

[6] = system: Candida albicans; test: MIC by broth dilution, Candida albicans
Experimental: as §1, §2

[7] = system: Streptococcus pneumoniae GC 1894; test: MIC by broth dilution, Streptococcus pneumoniae GC 1894
Experimental: as §1, §2

[8] = 2 strains, including a vancomycin-resistant strain (VRE), 18 hours at 35° C., read-out: MIC
[9] = 3 strains, including a methicillin-resistant strain (MRSA), 18 hours at 35° C., read-out: MIC
[10] = Streptococcus pneumoniae, GC1894, Streptococcus pneumoniae GC 1894* (5% LHB), read-out: MIC
[11] = Streptococcus pneumoniae, GC1894, Streptococcus pneumoniae GC 1894+ (THY), read-out: MIC

Structure (SMILES) | MIC [1, 8] [µg/mL] | MIC [2, 9] [µg/mL] | MIC ([3]; read-out: MIC) [µg/mL] | MIC [4] [µg/mL] | MIC ([5]; read-out: MIC) [µg/mL] | MIC ([6]; read-out: MIC) [µg/mL] | MIC [7, 10] [µg/mL] | MIC [7, 11] [µg/mL] | MIC ([1]; VRE, 18 h) [µg/mL] | MIC ([2]; MRSA, 18 h) [µg/mL] | MIC [3] [µg/mL] | MIC [5] [µg/mL] | MIC [6] [µg/mL] | MIC ([7]; Streptococcus pneumoniae GC 1894+ (THY)) [µg/mL] | MIC ([7]; Streptococcus pneumoniae, GC1894) [µg/mL]
COc1c2ccc3c(=O)c4cc(C)n(CC(=O)N5CC(C(=O)O)NC(=O)C5C)c(=O)c4c(=O)c3c2c(O)c2c(=O)c3cccc(O)c3c(=O)c12 (centres unmarked) [Example 3, P175-A] | < 0.06 | 0.06 to 0.25 (≈ 0.0883 to 0.368 µM) | 0.12 (≈ 0.177 µM) | 8 (≈ 11.8 µM) | > 64 | > 64 | 16 (≈ 23.5 µM) | 8 (≈ 11.8 µM) | – | – | – | – | – | – | –
COC(=O)C1CN(C(=O)Cn2c(C)cc3c(=O)c4ccc5c(OC)c6c(=O)c7c(O)cccc7c(=O)c6c(O)c5c4c(=O)c3c2=O)C(C)C(=O)N1 (centres unmarked) [Example 4, P175-A methyl ester] | < 0.06 | 0.06 to 0.12 (≈ 0.0865 to 0.173 µM) | 0.12 (≈ 0.173 µM) | 4 (≈ 5.77 µM) | > 64 | > 64 | 1 (≈ 1.44 µM) | 2 (≈ 2.88 µM) | – | – | – | – | – | – | –
CCOC(=O)C1CN(C(=O)Cn2c(C)cc3c(=O)c4ccc5c(OC)c6c(=O)c7c(O)cccc7c(=O)c6c(O)c5c4c(=O)c3c2=O)C(C)C(=O)N1 (centres unmarked) [Example 5, P175-A ethyl ester] | 0.25 to 0.5 (≈ 0.353 to 0.707 µM) | 0.06 to 0.12 (≈ 0.0848 to 0.17 µM) | 0.25 (≈ 0.353 µM) | 16 (≈ 22.6 µM) | > 64 | > 64 | 0.5 (≈ 0.707 µM) | 1 (≈ 1.41 µM) | – | – | – | – | – | – | –
COc1c2ccc3c(=O)c4cc(C)n(CC(=O)N5CC(C(=O)OC(C)C)NC(=O)C5C)c(=O)c4c(=O)c3c2c(O)c2c(=O)c3cccc(O)c3c(=O)c12 (centres unmarked) [Example 6, P175-A isopropyl ester] | 4 (≈ 5.54 µM) | 1 to 4 (≈ 1.39 to 5.54 µM) | 8 (≈ 11.1 µM) | 16 (≈ 22.2 µM) | > 64 | > 64 | 2 (≈ 2.77 µM) | 4 (≈ 5.54 µM) | – | – | – | – | – | – | –
COc1c2ccc3c(=O)c4cc(C)n(CC(=O)N5CC(C(=O)OCc6ccccc6)NC(=O)C5C)c(=O)c4c(=O)c3c2c(O)c2c(=O)c3cccc(O)c3c(=O)c12 (centres unmarked) [Example 7, P175-A benzyl ester] | 2 to 8 (≈ 2.6 to 10.4 µM) | 0.12 to 2 (≈ 0.156 to 2.6 µM) | 4 (≈ 5.2 µM) | 32 (≈ 41.6 µM) | > 64 | > 64 | 0.5 (≈ 0.65 µM) | 0.25 (≈ 0.325 µM) | – | – | – | – | – | – | –
COC(=O)COC(=O)C1CN(C(=O)Cn2c(C)cc3c(=O)c4ccc5c(OC)c6c(=O)c7c(O)cccc7c(=O)c6c(O)c5c4c(=O)c3c2=O)C(C)C(=O)N1 (centres unmarked) [Example 8A] | – | – | – | 8 (≈ 10.6 µM) | – | – | – | – | 0.5 to 1 (≈ 0.665 to 1.33 µM) | 0.5 to 2 (≈ 0.665 to 2.66 µM) | 1 (≈ 1.33 µM) | > 64 | > 64 | 64 (≈ 85.1 µM) | 64 (≈ 85.1 µM)
COc1c2ccc3c(=O)c4cc(C)n(CC(=O)N5CC(C(=O)O)NC(=O)C5C)c(=O)c4c(=O)c3c2c(O)c2c(=O)c3cccc(OCC(=O)O)c3c(=O)c12 (centres unmarked) [Example 9D] | 8 (≈ 10.8 µM) | 8 to 16 (≈ 10.8 to 21.7 µM) | 8 (≈ 10.8 µM) | > 64 | > 64 | > 64 | > 64 | 64 (≈ 86.8 µM) | – | – | – | – | – | – | –
